Test [1] has as its target IDH1 R132H enzyme (Homo sapiens (Human), UniProt O75874, R132H). The test can be described thus: Mutant IDH1 R132H biochemical assay. The note with it: NADPH consumption, luminescent readout; 1.5 nM enzyme, 1 μM NADPH, 250 μM α-KG, 30 minutes, 32° C. How it is done: Mutant IDH1 R132H Biochemical Assay
mIDH1 catalyzes the NADPH-dependent reduction of alpha-ketoglutarate (α-KG) to (2R)-2-hydroxyglutarate (2-HG). NADPH consumption was measured by luminescent readout.
The biochemical reactions were performed at 32° C. in 384-well plates using a reaction volume of 41 μL and the following assay buffer conditions: 50 mM Tris pH 7.5, 100 mM NaCl, 20 mM MgCl2, 0.05% BSA, 0.01% Brij, 1 μM NADPH, and 250 μM α-KG. The IDH1 R132H enzyme was used in a final concentration of 1.5 nM. Test compounds were used in a concentration range between 0.002 and 10 μM. The final DMSO concentration was 2.4%.
The reaction was incubated for 30 minutes, then 40 μL of detection mix (0.75 μg/ml Luciferase, 0.02 U/ml Oxidoreductase, 4 μg/mL FMN, 2 μL/ml decanal/ethanol, 50 mM Tris pH 7.5, 0.5% Glycerin, 0.01% Tween-20, 0.05% BSA) was added. Luminescence was measured on a luminescent reader (10 seconds measuring time, 1 second integration period, 30% sensitivity). The decrease in luminescence is proportional to mIDH1 activity. IC50 values are determined by interpolation from plots of relative luminescence versus inhibitor concentration.

Test [2] has as its system LN229 R132H cells. Nature of the test: Mutant IDH1 cellular assay. To be noted: Homo sapiens, LN-229; 2-HG levels in medium of LN229 R132H cells, 24 hours, fluorescence readout. The class given is cell-based. The procedure: Mutant IDH1 Cellular Assay
Levels of (2R)-2-hydroxyglutarate (2HG) were measured in medium of a cell line with overexpression of mutated isocitrate dehydrogenase (mIDH) protein. mIDH catalyzes the NADPH-dependent reduction of alpha-ketoglutarate to 2-HG. Cells (LN229 R132H, Mohrenz et al., Apoptosis (2013) 18:1416-1425) were grown in DMEM containing 10% FCS. They were harvested by trypsin and seeded into 96-well plates. Cells were incubated overnight at 37° C. in 5% CO2. The next day test compounds were added to each cell well. The final concentration of DMSO was 0.1% and DMSO controls were included. The plates were then placed in an incubator for 24 hours.
2-HG was measured according to Balss et al. (Acta Neuropathol (2012) 124: 883-891). Briefly, perchloric acid was added to each well and the plates were centrifuged. Aliquots are removed and incubated with hydroxyglutarate dehydrogenase (HGDH), diaphorase, NAD+, and resazurin. The conversion of resazurin to resorufin was detected by fluorescence spectroscopy at Ex 540 nm Em 600 nm. The increase in fluorescence is proportional to 2-HG production. IC50 values are determined by interpolation from plots of relative fluorescence vs inhibitor concentration.

The values that follow come from patent US10919862B2, “Fused imidazoles as mIDH1 inhibitors” (BAYER PHARMA AKTIENGESELLSCHAFT, priority 2015, dated 2021).

The structures appear in SMILES notation.

IDH1 R132H enzyme, sequence (O75874 whole entry R132H): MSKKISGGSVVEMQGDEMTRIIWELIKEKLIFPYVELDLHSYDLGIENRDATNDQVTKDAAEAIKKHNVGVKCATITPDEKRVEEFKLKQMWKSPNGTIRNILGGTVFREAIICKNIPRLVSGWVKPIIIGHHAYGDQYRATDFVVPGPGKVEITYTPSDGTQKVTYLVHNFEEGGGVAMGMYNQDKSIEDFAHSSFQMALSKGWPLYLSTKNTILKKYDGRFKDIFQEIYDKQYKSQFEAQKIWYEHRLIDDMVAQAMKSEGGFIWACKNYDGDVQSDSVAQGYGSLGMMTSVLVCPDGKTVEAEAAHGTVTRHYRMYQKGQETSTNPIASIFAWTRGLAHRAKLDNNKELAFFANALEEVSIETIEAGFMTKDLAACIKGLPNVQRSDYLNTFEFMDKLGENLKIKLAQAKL

Consider `CC1(C)C[C@@H](n2c(Nc3ccc(OC(F)(F)F)cc3)nc3cnccc32)C[C@@](C)(CO)C1` [Example 2-6, [(1 S,5R)-1,3,3-trimethyl-5-(2-{[4-(trifluoromethoxy)phenyl]amino}-1H-imidazo-[4,5-c]pyridin-1-yl)cyclohexyl]methanol], for which the IC50 in test [1] turned out to be 30 nM; in test [2], 1600 nM.
Turning to `C[C@H]1C[C@@H](n2c(Nc3ccc(OC(F)(F)F)cc3)nc3cc(C(=O)O)ccc32)CC(C)(C)[C@@H]1O` [Example 2-2, 1-[(1R,4R,5S)-4-hydroxy-3,3,5-trimethylcyclohexyl]-2-{[4-(trifluoromethoxy)-phenyl]amino}-1H-benzimidazole-5-carboxylic acid], in test [1], half-maximal inhibition (IC50) required 4800 nM.
For `CC1(C)C[C@@H](CO)C[C@@H](n2c(Nc3ccc(OC(F)(F)F)cc3)nc3cc(CCC(=O)O)ccc32)C1` [Example 2-3, 3-(1-[(1R,5R)-5-(hydroxymethyl)-3,3-dimethylcyclohexyl]-2-{[4-(trifluoromethoxy)-phenyl]amino}-1H-benzimidazol-5-yl)propanoic acid], the values for the IC50 in test [1] and in test [2] were 180 nM and 1200 nM, respectively.
In test [1], `C[C@H]1C[C@@H](n2c(Nc3ccc(OC(F)(F)F)cc3)nc3cc(CCC(=O)O)ccc32)CC(C)(C)[C@@H]1O` [Example 2-5, 3-(1-[(1R,4R,5S)-4-hydroxy-3,35-trimethylcyclohexyl]-2-{[4-(trifluoromethoxy)-phenyl]amino}-1H-benzimidazol-5-yl)propanoic acid] came in with an IC50 of 4100 nM.
In turn, `C[C@H]1C[C@@H](n2c(Nc3ccc(OC(F)(F)F)cc3)nc3cc(C(=O)O)ccc32)CC(C)(CO)C1` (stereo partly drawn) [Example 2-1, 1-[(1R,5R)-3-(hydroxymethyl)-3,5-dimethylcyclohexyl]-2-{[4-(trifluoromethoxy)-phenyl]amino}-1H-benzimidazole-5-carboxylic acid] displayed a half-maximal inhibitory concentration (IC50) in test [1] of 500 nM.
On to `C[C@H]1C[C@@H](n2c(Nc3ccc(OC(F)(F)F)cc3)nc3cc(CCC(=O)O)ccc32)CC(C)(CO)C1` (stereo partly drawn) [Example 2-4, 3-(1-[(1R,5R)-3-(hydroxymethyl)-3,5-dimethylcyclohexyl]-2-{[4-(trifluoromethoxy)-phenyl]amino}-1H-benzimidazol-5-yl)propanoic acid], for which the IC50 in test [1] came out at 270 nM; in test [2], 2200 nM.
